Tests used:
[1] = system: patients with AECOPD; assay: Phase 2 trial (AETHER): change in FEV1 from baseline to Day 7, on top of Standard of Care; format: in vivo, human; conditions: for improvement in FEV1 (change from baseline to Day 7): sub-group with blood eosinophils <2%, oral, three doses over five days (Days 1, 3, 5), on top of Standard of Care, FIG. 1, FIG. 2
Excerpt: (§1) A Phase 2 trial (referred to as AETHER) was a double-blind, randomised, placebo-controlled clinical study investigating the use of BCT-197, on top of Standard of Care, for the treatment of patients with AECOPD. Standard of Care included the addition of steroids and/or antibiotics to a patient's chronic COPD medication and symptomatic bronchodilators. Following baseline assessment, 282 eligible patients were randomised to receive either two different dose regimens of BCT-197 or placebo (three doses over five days). The primary endpoint was a comparison of change in forced expiratory volume in 1 second (FEV1) from baseline to day 7 within each arm of the study.
The trial assessed adult patients ≥40 years with an acute exacerbation of COPD (as defined by increase in symptoms of cough, and/or sputum and/or breathlessness that required addition of antibiotics and or systemic corticosteroids to their regular treatment).
Patients received one of two oral dosing regimens of 3-[5-amino-4-(3-cyanobenzoyl)-pyrazol-1-yl]-N-cyclopropyl-4-methylbenzamide or matching oral placebo administered according to the dosing schedules shown in Table 1. […]
Efficacy of treatment was measured by the primary endpoint of change in FEV1 from baseline (before treatment) to Day 7. Patients with COPD and low eosinophils (determined by blood percentages or absolute counts) are considered to be poorly responsive to treatment of acute exacerbations using known treatments.

[2] = system: high sensitivity C-Reactive Protein (hsCRP); assay: AETHER exploratory outcome: hsCRP measured in patient blood; format: in vivo, human; conditions: high and low dose over 5 days; including patients with <2% eosinophils; maximal at Day 7; FIG. 3
Excerpt: as §1
(§2) Patients received one of two oral dosing regimens of 3-[5-amino-4-(3-cyanobenzoyl)-pyrazol-1-yl]-N-cyclopropyl-4-methylbenzamide or matching oral placebo administered according to the dosing schedules shown in Table 1.
(§3) A further exploratory outcome included over the treatment period to Day 5 and BCT197 systemic exposure (to Day 14) were the inflammatory biomarkers high sensitivity C-Reactive Protein (hsCRP) and fibrinogen measured in patient blood. […] This was maximal at Day 7 (FIGS. 3 and 4) coincident with the highest improvement in FEV1 (FIG. 2) in response to BCT197 in the same patient population with <2% eosinophils.

[3] = system: fibrinogen; assay: AETHER exploratory outcome: fibrinogen measured in patient blood; format: in vivo, human; conditions: high and low dose over 5 days; including patients with <2% eosinophils; maximal at Day 7; FIG. 4
Excerpt: as §1, §2, §3

[4] = system: AECOPD; conditions: single oral dose; cited from earlier work

Cc1ccc(C(=O)NC2CC2)cc1-n1ncc(C(=O)c2cccc(C#N)c2)c1N [BCT197, 3-[5-Amino-4-(3-cyanobenzoyl)-pyrazol-1-yl]-N-cyclopropyl-4-methylbenzamide]
relative difference in FEV1 response versus standard of care alone (placebo arm) ([1]; >2% eosinophil sub-population, FIG. 1): much less than in the low eosinophil group
improvement in FEV1 (change from baseline to Day 7) [1]: substantial and consistent improvement in FEV1
improvement in FEV1 (change from baseline to Day 7) ([1]; listed as compound A): significant improvement
reduction versus placebo in hsCRP from baseline [2]: dose-dependent reduction
reduction versus placebo in fibrinogen from baseline [3]: dose-dependent reduction
effect on recovery of AECOPD to the stable disease state [4]: accelerates the recovery to the stable disease state
